Results on one compound are retold here after patent US20230310413A1, “PHARMACEUTICAL FORMULATIONS COMPRISING A MALT1 INHIBITOR AND A MIXTURE OF POLYETHYLENE GLYCOL WITH A FATTY ACID” (JANSSEN PHARMACEUTICA NV, priority 2020, published 2023).

Structures are written as SMILES. Read-outs that look alike come from different tables or passages of the source.

The nature of this data set: Pharmacokinetics of Compound A after single oral administration at 200 mg in fasted and fed dogs. The note with it: 200 mg oral dose; for AUC(0-t) / Tmax / half-life / Cmax: male, po, 200 mg; for Tmax: median; for half-life: N = 2, poor linear regression; for Cmax: Gelucire 50/13 size 00 hard gelatin capsule, N=3. It is filed as in vivo, male beagle dogs. The protocol:
Example 8: Pharmacokinetics of Compound a after Single Oral Administration at 200 Mg in Fasted and Fed Dogs
A pharmacokinetic (PK) study was carried out using a Compound A stearoyl polyoxy-32 glycerides formulation.
A formulation of compound A and stearoyl polyoxy-32 glycerides (Gelucire® 50/13) in size 00 hard gelatin capsules (200 mg dose per capsule), according to Table 3, was administered orally to male beagle dogs (N=3) in a fasted state as well as a fed state.

The mark [1] stands for this setting: beagle, dog, plasma, fasted male dogs, Gelucire 50/13 hard gelatin capsule.
Where [2] appears, read: beagle, dog, plasma, fed male dogs, Gelucire 50/13 hard gelatin capsule.

The term AUC(0-inf) denotes total exposure, with the tail of the curve extrapolated. Read a low AUC(0-inf) as less exposure. Usually Tmax stands for the time from dosing to the highest level. By half-life is commonly meant the time in which the quantity being followed falls by half. By Cmax is commonly meant the peak of the concentration-time curve.

For the setting “beagle, dog, plasma, fasted male dogs, Gelucire 50/13 hard gelatin capsule, mean”, `O=C(Nc1ccnc(C(F)(F)F)c1)c1cnn(-c2cccc3c(=O)[nH]ccc23)c1C(F)(F)F` [Compound A, 1-(1-oxo-1,2-dihydroisoquinolin-5-yl)-5-(trifluoromethyl)-N-(2-(trifluoromethyl)pyridin-4-yl)-1H-pyrazole-4-carboxamide] displayed an area under the curve AUC(0-inf) of 578 µg·h/mL. Further, the “Fed vs Fasted” value (fed male dogs, fasted group as reference) is recorded as 1.3. For the same compound, the AUC(0-t) amounted to 246 µg·h/mL (beagle, dog, plasma, fasted male dogs, Gelucire 50/13 hard gelatin capsule, mean, read-out: AUC0-24 h); 521 µg·h/mL (beagle, dog, plasma, fasted male dogs, Gelucire 50/13 hard gelatin capsule, mean, read-out: AUC0-96 h); 121 µg·h/mL (beagle, dog, plasma, fed male dogs, Gelucire 50/13 hard gelatin capsule, mean, read-out: AUC0-24 h); 502 µg·h/mL (beagle, dog, plasma, fed male dogs, Gelucire 50/13 hard gelatin capsule, mean, read-out: AUC0-96 h). Moreover, the Tmax by setting is: under setting [1], 2 h; under setting [2], 24 h. In addition, the half-life was 30 h under setting [1] and 34 h under setting [2]. Further, the Cmax reads like this: (beagle, dog, plasma, fasted male dogs, mean) 16000 ng/mL; (beagle, dog, plasma, fed male dogs, mean) 9330 ng/mL.
